PMC11574108, “4-Furanylvinylquinoline derivative as a new scaffold for the design of oxidative stress initiator and glucose transporter inhibitor drugs” (Scientific Reports, 2024)
Values joined by “and” are separate entries in the source; they are usually repeats but may differ in a detail not shown here. Identical values can stand only once.

Legend:
HCT 116 p53-/- = test: Monolayer antiproliferative MTS assay; assay type: cell-based, human; settings: 2D monolayer; for IC50: MTS, 72-h incubation; for SI (selectivity index) HCT 116 p53-/-: relative to NHDF
Source text: (§1) The human colon carcinoma cell line HCT 116 with wild-type p53 (p53^+/+) and the human glioblastoma cell line U-251 were obtained from ATCC, while the HCT 116 with a p53 deletion (p53^−/−) was kindly provided by Prof. M. Rusin from the Maria Sklodowska-Curie Memorial Cancer Center and Institute of Oncology in Gliwice, Poland. The human chronic myelogenous leukaemia cell line K562 and the normal human cell dermal fibroblast cell line NHDF were purchased from Sigma-Aldrich and PromoCell, respectively. Both the HCT 116 and U-251 cell lines were cultured in Dulbecco’s modified Eagle’s medium (DMEM) supplemented with 10% inactivated foetal bovine serum (FBS). The DMEM for the NHDF contained 15% non-inactivated FBS. K562 cells were cultured in RPMI medium completed by 10% inactivated FBS. Additionally, the media were supplemented with antibiotics (streptomycin and penicillin – 1% v/v; Sigma-Aldrich). The cell culture was conducted in 75 cm^2 flasks (Nunc) under standard conditions (37 °C, 5% CO2 humidified atmosphere). Furthermore, the cell lines were frequently tested for mycoplasma using the qRT-PCR technique with specific Mycoplasma primers to confirm the lack of contamination.
(§2) The cells were seeded in 96-well plates (Nunc) with 5,000 or 4,000 cells per well for the cancer cells and NHDF, respectively, and incubated under standard conditions at 37 °C overnight. The culture media were then changed for freshly prepared solutions of the tested compounds in various concentrations. After 72-h incubation the antiproliferative assay was carried out as follows: the solutions of the compounds were changed in each well to 100 µL DMEM without phenol red and 20 µL of CellTiter 96 AQueous One Solution-MTS (Promega). The plates were incubated for 1 h at 37 °C, and the absorbance was then measured at 490 nm using a multi-plate reader (Synergy 4, BioTek). The experiment for each sample was repeated at least three times.
(§3) Additionally, the compounds were also tested for their cytotoxicity against normal cells – human dermal fibroblasts (NHDF).

HCT 116 p53+/+ = test: Monolayer antiproliferative MTS assay; assay type: cell-based, human; settings: 2D monolayer; for IC50: MTS, 72-h incubation; for SI (selectivity index) HCT 116 p53+/+: relative to NHDF
Source text: as §1, §2, §3

NHDF = test: Monolayer MTS cytotoxicity against normal cells; assay type: cell-based; settings: normal human dermal fibroblasts, 72-h incubation
Source text: as §1, §2, §3

K562 = test: Monolayer antiproliferative MTS assay; assay type: cell-based, human; settings: 2D model
Source text: as §1
as §2, with “times. The results are presented as the half-maximal inhibitory concentration (IC50) values, which were estimated in comparison to untreated cells (control) and calculated using GraphPad Prism v.8.0 (USA).” for “times.”
(§4) However, the antiproliferative activity of derivative 13 with furan a ring was surprising. […] For this purpose, we selected two pancreatic cancer cell lines: AsPC-1, which is characterised by a deletion of the p53 protein[20] and PANC-1, which carries an R273H mutation. This mutation also occurred in the glioblastoma U-251 cell line[22],[23]. An additional non-adherent line that carries the TP53 mutation that results in the absence of p53 is the K562 leukemic cell line[24]. […] Moreover, 13 was selective toward […], as indicated by its SI values (3.35–9.41). Among all of the tested cell lines, the highest activity of the compound was found against the HCT 116 cells with the wild-type p53 protein (0.069 µM). […] The p53 protein also interacts with the metabolic pathways that are associated with glucose transport[25] as well as small molecules. In light of the above-mentioned facts, we also determined the cytotoxicity of the GLUT inhibitor BAY-876, which is based on a quinoline scaffold. […] Furthermore, BAY-876 was also toxic to normal cells.

U-251 = test: Monolayer antiproliferative MTS assay; assay type: cell-based, human; settings: 2D monolayer
Source text: as §1
as §2, with “times. The results are presented as the half-maximal inhibitory concentration (IC50) values, which were estimated in comparison to untreated cells (control) and calculated using GraphPad Prism v.8.0 (USA).” for “times.”
as §4

GLUT-1 = test: Western blot, GLUT-1 protein level; assay type: cell-based, human; settings: HCT 116 p53+/+, DOX 5 µM, both time points (24 and 48 h)
Procedure: The cells (500,000) were seeded in 35 mm Petri dishes (Nunc) and incubated in a solution of the tested compound (0.5 µM and 1 µM) for 24 h and 48 h. The cells were then dissociated using trypsin, collected in Eppendorf tubes, and centrifuged at 2,000 rpm. Next, cell pellets were resuspended in complete RIPA buffer containing a Halt Protease Inhibitor Cocktail and Halt Phosphatase Inhibitor Cocktail along with 0.5 M EDTA (all reagents from Thermo Fisher Scientific) and lysed on ice for 20 min. Afterward, the lysates were sonicated and centrifuged at 10,000 rpm for 10 min at 4 °C. The obtained supernatants were collected for further analysis. The protein concentration was determined using a Micro BCA™ Protein Assay Kit (Thermo Fisher Scientific) according to the manufacturer’s procedure. Equal amounts of proteins (16 µg) were electrophoresed on SDS-Page gels and transferred onto nitrocellulose membranes. Novex Sharp Pre-Stained Protein Standard (Thermo Fisher Scientific) was used as a colored molecular weight marker. The membranes were blocked in 5% non-fat milk prepared in TPBS (PBS supplemented by 0.1% Tween-20) for 1 h. After blocking, the membranes were cut, and then incubated with specific primary monoclonal antibodies (all purchased from Cell Signaling) overnight at 4 °C. The antibodies for the target proteins (CDK1 Mouse mAb #9116, p53 Mouse mAb #2524, FAS Mouse mAb #8023, GLUT-1 Rabbit mAb #12939, HO-1 Rabbit mAb #5853, p21^Waf1/Cip1 Rabbit mAb #2947, PARP #9542) were diluted 1:1000, while the antibodies for the reference proteins (GAPDH Rabbit mAb #2118, β-actin Mouse mAb #3700, and vinculin Rabbit mAb #13901) were diluted 1:2000. The following day, the membranes were washed in TPBS and incubated with horseradish peroxidase (HRP)-conjugated secondary antibodies (Anti-rabbit IgG, HRP-linked Antibody #7074 or Anti-mouse IgG, HRP-linked Antibody #7076) for 1 h at room temperature. The membranes were then washed in TPBS and incubated with a SuperSignal™ West Pico Chemiluminescent Substrate (Thermo Fisher Scientific). Finally, the membranes were visualized using a ChemiDoc™ XRS + System (Bio-Rad). The experiments were carried out four to five times. The densitometric analysis was performed using ImageJ software (Wayne Rasband, National Institutes of Health, USA).
We, therefore, decided to test the effect of the tested compound on the level of the main glucose transporter, GLUT-1. […] The validity of the described conclusions was confirmed by the results that were obtained for doxorubicin. in which p53 activation occurred at both tested time points with a concomitant decrease in the GLUT-1 levels. […] The results that were obtained from the measurements of the expression of this protein were so interesting, and at the same time, inconclusive that we additionally decided to determine the effect of the tested derivative 13 on the expression of the genes encoding selected glucose transporters.

AsPC-1 = test: Monolayer antiproliferative MTS assay; assay type: cell-based, human; settings: 2D monolayer
Procedure: as §2, with “times. The results are presented as the half-maximal inhibitory concentration (IC50) values, which were estimated in comparison to untreated cells (control) and calculated using GraphPad Prism v.8.0 (USA).” for “times.”
as §4

PANC-1 = test: Monolayer antiproliferative MTS assay; assay type: cell-based, human; settings: 2D monolayer
Procedure: as §2, with “times. The results are presented as the half-maximal inhibitory concentration (IC50) values, which were estimated in comparison to untreated cells (control) and calculated using GraphPad Prism v.8.0 (USA).” for “times.”
as §4

Row | SMILES | melting point | IC50 (NHDF; NHDF) | SI (selectivity index) HCT 116 p53-/- (HCT 116 p53-/-) | IC50 (HCT 116 p53-/-; Homo sapiens, HCT-116, 72 h) | SI (selectivity index) HCT 116 p53+/+ (HCT 116 p53+/+) | IC50 (HCT 116 p53+/+; Homo sapiens, HCT-116, 72 h) | further results
1 | Oc1cccc2ccc(/C=C/c3ccco3)nc12 [Compound 1] |  |  |  |  |  |  | IC50 (HCT 116 p53-/-): > 25 µM; IC50 (HCT 116 p53+/+): > 25 µM
2 | Cc1ccc(/C=C/c2ccc3cccc(O)c3n2)o1 [Compound 2] |  |  |  |  |  |  | IC50 (HCT 116 p53-/-): > 25 µM; IC50 (HCT 116 p53+/+): > 25 µM
3 | O=[N+]([O-])c1ccc(/C=C/c2ccc3cccc(O)c3n2)o1 [Compound 3] | 189 to 191 °C |  |  |  |  |  | 
4 | CC(=O)Oc1cccc2ccc(/C=C/c3ccc([N+](=O)[O-])o3)nc12 [Compound 4] | 173 to 175 °C | 0.67 ± 0.08 µM | 2.79 | 0.24 ± 0.05 µM | 3.35 | 0.2 ± 0.03 µM | 
5 | O=[N+]([O-])c1ccc(/C=C/c2cc(O)c3ccccc3n2)o1 [Compound 5] | 306 to 308 °C | 0.45 ± 0.07 µM | 1.50 | 0.3 ± 0.07 µM | 1.50 | 0.3 ± 0.1 µM | 
6 | Oc1c(Cl)cc(Cl)c2ccc(C=Cc3ccco3)nc12 [Compound 6] |  |  |  |  |  |  | IC50 (NHDF): > 25 µM; IC50 (HCT 116 p53-/-): 2.7 µM and 2.72 µM; IC50 (HCT 116 p53+/+): 4 µM and 4.01 µM
7 | O=[N+]([O-])c1ccc(/C=C/c2ccc3c(Cl)cc(Cl)c(O)c3n2)o1 [Compound 7] | 270 to 271 °C | > 25 µM | > 18.80 | 1.33 ± 0.25 µM | > 7.23 | 3.46 ± 0.34 µM | 
8 | CC(=O)Oc1c(Cl)cc(Cl)c2ccc(/C=C/c3ccc([N+](=O)[O-])o3)nc12 [Compound 8] | 220 to 222 °C | 11.3 ± 2.53 µM | 10.13 | 1.12 ± 0.51 µM | 5.46 | 2.08 ± 0.4 µM | 
9 | O=[N+]([O-])c1ccccc1/C=C/c1ccnc2ccccc12 [Compound 9] | 161 to 163 °C |  |  | > 25 µM |  | > 25 µM | 
10 | O=[N+]([O-])c1cccc(/C=C/c2ccnc3ccccc23)c1 [Compound 10] | 111 to 112 °C |  |  | > 25 µM |  | > 25 µM | 
11 | O=[N+]([O-])c1ccc(/C=C/c2ccnc3ccccc23)cc1 [Compound 11] | 228 to 229 °C |  |  | > 25 µM |  | > 25 µM | 
12 | O=[N+]([O-])c1ccc(/C=C/c2ccnc3ccccc23)c([N+](=O)[O-])c1 [Compound 12] | 200 to 201 °C |  |  |  |  |  | IC50 (HCT 116 p53-/-; Homo sapiens, HCT-116): > 25 µM; IC50 (HCT 116 p53+/+; Homo sapiens, HCT-116): > 25 µM
13 | COc1cccc2c1C(=O)c1c(O)c3c(c(O)c1C2=O)C[C@@](O)(C(=O)CO)C[C@@H]3O[C@H]1C[C@H](N)[C@H](O)[C@H](C)O1 [Doxorubicin, reference compound] |  | 0.14 ± 0.03 µM | 0.37 |  | 0.41 |  | SI (selectivity index) K562 (K562; relative to NHDF): 7.00; IC50 (K562; Homo sapiens, K562, MTS, 72-h incubation): 0.02 ± 0.01 µM; SI (selectivity index) U-251 (U-251; relative to NHDF): 2.80; IC50 (U-251; Homo sapiens, U-251, MTS, 72-h incubation): 0.05 ± 0.02 µM; GLUT-1 protein level vs control (GLUT-1): decrease; IC50 (HCT 116 p53-/-; Homo sapiens, HCT-116): 0.38 ± 0.03 µM; IC50 (HCT 116 p53+/+; Homo sapiens, HCT-116): 0.34 ± 0.04 µM; SI (selectivity index) AsPC-1 (AsPC-1; relative to NHDF): 0.16; IC50 (AsPC-1; Homo sapiens, ASPC1, MTS, 72-h incubation): 0.86 ± 0.13 µM; SI (selectivity index) PANC-1 (PANC-1; relative to NHDF): 0.19; IC50 (PANC-1; Homo sapiens, PANC-1, MTS, 72-h incubation): 0.73 ± 0.09 µM
